# Measurements as given in US9593108B2, “Compounds and methods for antiviral treatment” (PTC Therapeutics, Inc., priority 2009, dated 2017).
# System: HCV replicon RNA (GenBank Accession No. AJ242654)
# Assay: HCV Replicon Assay (replicon RNA reduction and/or Fluc reporter signal)
# Assay type: cell-based, Hepatitis C virus
# Conditions: Hepatitis C virus, 72 h, replicon-containing cells cultured with test compound for up to 3 days
# Excerpt: The lack of reliable and readily accessible cell-culture and small animal models permissive for HCV replication has limited the development of new anti-HCV agents. Self-replicating subgenomic HCV systems, termed HCV replicons, have been described and have been widely used to assess the efficacy of anti-HCV inhibitors (see Blight K J, et al., 2000, Efficient initiation of HCV RNA replication in cell culture. Science 290:1972-1974; Blight K J, et al., 2002, Highly permissive cell lines for subgenomic and genomic hepatitis C virus RNA replication. J Virol 76:13001-13014; Ikeda M, et al., 2002. Selectable subgenomic and genome-length dicistronic RNAs derived from an infectious molecular clone of the HCV-N strain of hepatitis C virus replicate efficiently in cultured Huh7 cells. J Virol 76:2997-3006; Lohmann V, et al., 1999, Replication of subgenomic hepatitis C virus RNAs in a hepatoma cell line. Science 285:110-113; Pietschmann T, et al., 2002, Persistent and transient replication of full-length hepatitis C virus genomes in cell culture. J Virol 76:4008-4021; and, Pietschmann T, et al., 2001, Characterization of cell lines carrying self-replicating hepatitis C virus RNAs. J Virol 75:1252-1264).
# As described in U.S. Pat. No. 6,630,343, HCV inhibitors are analyzed in the bicistronic replicon by quantitating replicon RNA (GenBank Accession No. AJ242654) reduction and/or the Fluc reporter signal. Replicon-containing cells may be cultured with a test compound of the present invention for up to 3 days. Interferon (IFN) is used as a positive control. In general, the replicon IC50 values shown in Table 1 represent IC50 values determined by replicon RNA reduction.
row,Structure (SMILES),IC50 [µM]
1,"CC1(NS(=O)(=O)c2ccc(-c3c(C(N)=O)c4cc(Cl)cnc4n3C3CCC3)nc2)CC1 [Cpd 366, 5-chloro-1-cyclobutyl-2-{5-[(1-methylcyclopropyl)sulfamoyl]pyridin-2-yl}-1H-pyrrolo[2,3-b]pyridine-3-carboxamide]",< 0.5
2,"C[C@H](NS(=O)(=O)c1cnc(-c2c(C(N)=O)c3cccnc3n2C2CCC2)nc1)C(F)(F)F [Cpd 367, 1-cyclobutyl-2-(5-{[(2S)-1,1,1-trifluoropropan-2-yl]sulfamoyl}pyrimidin-2-yl)-1H-pyrrolo[2,3-b]pyridine-3-carboxamide]",2 to 5
3,"CC(C)(C)NS(=O)(=O)c1ccc(-c2c(C#N)c3cc(F)cnc3n2C2CCC2)cc1 [Cpd 369, N-tert-butyl-4-(3-cyano-1-cyclobutyl-5-fluoro-1H-pyrrolo[2,3-b]pyridin-2-yl)benzenesulfonamide]",0.5 to 2
4,"C[C@H](NS(=O)(=O)c1ccc(-c2c(C#N)c3cc(S(C)(=O)=O)cnc3n2C2CCC2)nc1)C(F)(F)F [Cpd 370, 6-[3-cyano-1-cyclobutyl-5-(methylsulfonyl)-1H-pyrrolo[2,3-b]pyridin-2-yl]-N-[(2S)-1,1,1-trifluoropropan-2-yl]pyridine-3-sulfonamide]",< 0.5
5,"CC(C)(NS(=O)(=O)c1ccc(-c2c(C(N)=O)c3cc(C4CC4)cnc3n2C2CCC2)cc1)C(F)(F)F [Cpd 372, 1-cyclobutyl-5-cyclopropyl-2-{4-[(1,1,1-trifluoro-2-methylpropan-2-yl)sulfamoyl]phenyl}-1H-pyrrolo[2,3-b]pyridine-3-carboxamide]",< 0.5
6,"NC(=O)c1c(-c2ccc(S(=O)(=O)NC3(C(F)(F)F)CC3)cn2)n(C2CCC2)c2ncc(C3CC3)cc12 [Cpd 374, 1-cyclobutyl-5-cyclopropyl-2-(5-{[1-(trifluoromethyl)cyclopropyl]sulfamoyl}pyridin-2-yl)-1H-pyrrolo[2,3-b]pyridine-3-carboxamide]",< 0.5
7,"CC(C)(C)NS(=O)(=O)c1ccc(-c2c(C(N)=O)c3cc(C4CC4)cnc3n2C2CCC2)cc1 [Cpd 375, 2-[4-(tert-butylsulfamoyl)phenyl]-1-cyclobutyl-5-cyclopropyl-1H-pyrrolo[2,3-b]pyridine-3-carboxamide]",< 0.5
8,"CCc1cnc2c(c1)c(C(N)=O)c(-c1ccc(S(=O)(=O)NC3(C(F)(F)F)CC3)cn1)n2C1CCC1 [Cpd 380, 1-cyclobutyl-5-ethyl-2-(5-{[1-(trifluoromethyl)cyclopropyl]sulfamoyl}pyridin-2-yl)-1H-pyrrolo[2,3-b]pyridine-3-carboxamide]",< 0.5
9,"CCc1cnc2c(c1)c(C(N)=O)c(-c1ccc(S(=O)(=O)NC(C)(C)C)cc1)n2C1CCC1 [Cpd 381, 2-[4-(tert-butylsulfamoyl)phenyl]-1-cyclobutyl-5-ethyl-1H-pyrrolo[2,3-b]pyridine-3-carboxamide]",< 0.5
10,"CCc1cnc2c(c1)c(C(N)=O)c(-c1ccc(S(=O)(=O)NC(C)(C)C)cn1)n2C1CCC1 [Cpd 382, 2-[5-(tert-butylsulfamoyl)pyridin-2-yl]-1-cyclobutyl-5-ethyl-1H-pyrrolo[2,3-b]pyridine-3-carboxamide]",0.5 to 2
11,"CSc1cnc2c(c1)c(C(=O)O)c(-c1ccc(S(=O)(=O)N[C@@H](C)C(F)(F)F)cn1)n2C1CCC1 [Cpd 386, 1-cyclobutyl-5-(methylsulfanyl)-2-(5-{[(2S)-1,1,1-trifluoropropan-2-yl]sulfamoyl}pyridin-2-yl)-1H-pyrrolo[2,3-b]pyridine-3-carboxylic acid]",0.5 to 2
12,"CSc1cnc2c(c1)c(C(N)=O)c(-c1ccc(S(=O)(=O)NC3(C(F)(F)F)CC3)cc1)n2C1CCC1 [Cpd 389, 1-cyclobutyl-5-(methylsulfanyl)-2-(4-{[1-(trifluoromethyl)cyclopropyl]sulfamoyl}phenyl)-1H-pyrrolo[2,3-b]pyridine-3-carboxamide]",< 0.5
